# Data published in ChEMBL document CHEMBL5712909, “WDR5 inhibition halts metastasis dissemination by repressing the mesenchymal phenotype of breast cancer cells” (2019).
# Activity calls are given as the source filed them. The rule behind the calls is not given here.
# How the values were obtained:
# [1] = test system: MDA-MB-231; test: Inhibition of cell migration in human MDA-MB-231 cells assessed as reduction in cell migration incubated for 3 days by crystal violet staining based transwell assay; assay type: functional; settings: dose 1-20 µM, time 3.0 day
# [2] = test system: MCF-10A; test: Inhibition of cell migration in human MCF-10A cells assessed as reduction in cell migration incubated for 3 days by crystal violet staining based transwell assay; assay type: functional; settings: dose 1-20 µM, time 3.0 day
# [3] = test system: MBC2; test: Inhibition of cell migration in human MBC2 cells assessed as reduction in cell migration at 20 microM for 3 days by crystal violet staining based transwell assay; assay type: functional; settings: time 3.0 day
# [4] = test system: MBC26; test: Inhibition of cell migration in human MBC26 cells assessed as reduction in cell migration at 20 microM for 3 days by crystal violet staining based transwell assay; assay type: functional; settings: time 3.0 day
# [5] = test system: MDA-MB-231; test: Induction of cell cycle arrest in human MDA-MB-231 cells assessed as accumulation of cells in G0/G1 phase at 20 microM for 3 days by BrDU and PI staining based flow cytometric analysis (reference value: 30.5%); assay type: functional; settings: time 3 day
# [6] = test system: MDA-MB-231; test: Induction of cell cycle arrest in human MDA-MB-231 cells assessed as accumulation of cells in not cycling S phase at 20 microM for 3 days by BrDU and PI staining based flow cytometric analysis (reference value: 2.5%); assay type: functional
# [7] = test system: MDA-MB-231; test: Induction of cell cycle arrest in human MDA-MB-231 cells assessed as accumulation of cells in G2/M phase at 20 microM for 3 days by BrDU and PI staining based flow cytometric analysis (reference value: 19.3%); assay type: functional; settings: time 3 day
# [8] = test system: MDA-MB-231; test: Induction of cell cycle arrest in human MDA-MB-231 cells assessed as accumulation of cells in S phase at 20 microM for 3 days by BrDU and PI staining based flow cytometric analysis (reference value: 45.7%); assay type: functional
# [9] = test system: MDA-MB-231; test: Induction of cell cycle arrest in human MDA-MB-231 cells assessed as accumulation of cells in G0/G1 phase at 10 uM for 3 days by BrDU and PI staining based flow cytometric analysis (reference value: 30.5%); assay type: functional
# [10] = test system: MDA-MB-231; test: Induction of cell cycle arrest in human MDA-MB-231 cells assessed as accumulation of cells in G2/M phase at 10 uM for 3 days by BrDU and PI staining based flow cytometric analysis (reference value: 19.3%); assay type: functional
# [11] = test system: MDA-MB-231; test: Induction of cell cycle arrest in human MDA-MB-231 cells assessed as accumulation of cells in G0/G1 phase at 10 nM for 3 days by BrDU and PI staining based flow cytometric analysis (reference value: 30.5%); assay type: functional
# [12] = test system: MDA-MB-231; test: Induction of cell cycle arrest in human MDA-MB-231 cells assessed as accumulation of cells in G2/M phase at 10 nM for 3 days by BrDU and PI staining based flow cytometric analysis (reference value: 19.3%); assay type: functional
# [13] = test system: MCF10DCIS; test: Inhibition of cell migration in human MCF10DCIS cells assessed as reduction in cell migration incubated for 3 days by crystal violet staining based transwell assay; assay type: functional; settings: dose 1-20 µM, time 3.0 day
# [14] = test system: MBC2; test: Antiproliferative activity against human MBC2 cells assessed as reduction in cell viability at 20 uM for 3 days by cell titre glo assay; assay type: functional, cell-based; settings: time 3.0 day
# [15] = test system: MBC26; test: Antiproliferative activity against human MBC26 cells assessed as reduction in cell viability at 20 uM for 3 days by cell titre glo assay; assay type: functional, cell-based; settings: time 3.0 day
# [16] = test system: MDA-MB-231; test: Inhibition of cell migration in human MDA-MB-231 cells assessed as reduction in cell migration at 10 microM for 3 days by crystal violet staining based transwell assay; assay type: functional; settings: time 3.0 day
# [17] = test system: MCF10DCIS; test: Inhibition of cell migration in human MCF10DCIS cells assessed as reduction in cell migration at 10 microM for 3 days by crystal violet staining based transwell assay; assay type: functional; settings: time 3.0 day
# [18] = test system: MDA-MB-231; test: Induction of cell cycle arrest in human MDA-MB-231 cells assessed as accumulation of cells in not cycling S phase at 10 uM for 3 days by BrDU and PI staining based flow cytometric analysis (reference value: 2.5%); assay type: functional; settings: time 3 day
# [19] = test system: MDA-MB-231; test: Induction of cell cycle arrest in human MDA-MB-231 cells assessed as accumulation of cells in S phase at 10 uM for 3 days by BrDU and PI staining based flow cytometric analysis (reference value: 45.7%); assay type: functional; settings: time 3 day
# [20] = test system: MDA-MB-231; test: Induction of cell cycle arrest in human MDA-MB-231 cells assessed as accumulation of cells in not cycling S phase at 10 nM for 3 days by BrDU and PI staining based flow cytometric analysis (reference value: 2.5%); assay type: functional
# [21] = test system: MDA-MB-231; test: Induction of cell cycle arrest in human MDA-MB-231 cells assessed as accumulation of cells in S phase at 10 nM for 3 days by BrDU and PI staining based flow cytometric analysis (reference value: 45.7%); assay type: functional
# [22] = test system: MBC2; test: Antiproliferative activity against human MBC2 cells assessed as reduction in cell viability at 10 uM for 3 days by cell titre glo assay; assay type: functional, cell-based; settings: time 3.0 day
# [23] = test system: MBC26; test: Antiproliferative activity against human MBC26 cells assessed as reduction in cell viability at 10 uM for 3 days by cell titre glo assay; assay type: functional, cell-based; settings: time 3.0 day
# [24] = test system: MBC2; test: Cytotoxicity against human MBC2 cells assessed as cell viability at 1 to 10 nM for 3 days in presence of OCIR-9429; assay type: functional, cell-based; settings: dose 1-10 nM, time 3.0 day
# [25] = test system: MBC2; test: Cytotoxicity against human MBC2 cells assessed as cell viability at 1 to 10 nM for 3 days in presence of galunisertib; assay type: functional, cell-based; settings: dose 1-10 nM, time 3.0 day
# [26] = test system: MDA-MB-231; test: Cytotoxicity against human MDA-MB-231 cells assessed as cell viability at 10 nM for 3 days in presence of OCIR-9429 relative to control; assay type: functional; settings: MDA-MB-231, 72 h, time 3 day, read-out: Activity
# [27] = test system: MDA-MB-231; test: Cytotoxicity against human MDA-MB-231 cells assessed as cell viability at 10 nM for 3 days in presence of galunisertib relative to control; assay type: functional; settings: MDA-MB-231, 72 h, time 3 day, read-out: Activity
# [28] = test system: MBC26; test: Cytotoxicity against human MBC26 cells assessed as cell viability for 3 days at 1 to 10 nM in presence of OCIR-9429; assay type: functional, cell-based; settings: dose 1-10 nM, time 3.0 day
# [29] = test system: MBC26; test: Cytotoxicity against human MBC26 cells assessed as cell viability for 3 days at 1 to 10 nM in presence of -Gaulnisertib; assay type: functional, cell-based; settings: dose 1-10 nM, time 3.0 day
# [30] = test system: MDA-MB-231; test: Induction of cell cycle arrest in human MDA-MB-231 cells assessed as cleaved PARP at 10 nM for 3 days in presence of OICR-9429 by Western blot analysis; assay type: functional, cell-based; settings: time 3.0 day
# [31] = test system: MDA-MB-231; test: Induction of cell cycle arrest in human MDA-MB-231 cells assessed as cleaved PARP at 10 nM for 3 days in presence of galunisertib by Western blot analysis; assay type: functional, cell-based; settings: time 3.0 day
# [32] = test system: MDA-MB-231; test: Induction of cell cycle arrest in human MDA-MB-231 cells assessed as DNA damage by measuring gamma H2AX phosphorylation at 10 nM for 3 days in presence of OICR-9429 by Western blot analysis; assay type: functional, cell-based; settings: time 3.0 day
# [33] = test system: MDA-MB-231; test: Induction of cell cycle arrest in human MDA-MB-231 cells assessed as DNA damage by measuring gamma H2AX phosphorylation at 10 nM for 3 days in presence of galunisertib by Western blot analysis; assay type: functional, cell-based; settings: time 3.0 day
# [34] = test system: MDA-MB-231; test: Induction of cell cycle arrest in human MDA-MB-231 cells assessed as accumulation of cells in G0/G1 phase at 10 nM for 3 days in presence of OCIR-9429 by BrDU and PI staining based flow cytometric analysis (reference value: 30.5%); assay type: functional; settings: time 3 day
# [35] = test system: MDA-MB-231; test: Induction of cell cycle arrest in human MDA-MB-231 cells assessed as accumulation of cells in not cycling S phase at 10 nM for 3 days in presence of OCIR-9429 by BrDU and PI staining based flow cytometric analysis (reference value: 2.5%); assay type: functional; settings: time 3 day
# [36] = test system: MDA-MB-231; test: Induction of cell cycle arrest in human MDA-MB-231 cells assessed as accumulation of cells in G2/M phase at 10 nM for 3 days in presence of OCIR-9429 by BrDU and PI staining based flow cytometric analysis (reference value: 19.3%); assay type: functional; settings: time 3 day
# [37] = test system: MDA-MB-231; test: Induction of cell cycle arrest in human MDA-MB-231 cells assessed as accumulation of cells in S phase at 10 nM for 3 days in presence of OCIR-9429 by BrDU and PI staining based flow cytometric analysis (reference value: 45.7%); assay type: functional; settings: time 3 day
# [38] = test system: MDA-MB-231; test: Induction of cell cycle arrest in human MDA-MB-231 cells assessed as accumulation of cells in G0/G1 phase at 10 nM for 3 days in presence of galunisertib by BrDU and PI staining based flow cytometric analysis (reference value: 30.5%); assay type: functional; settings: time 3 day
# [39] = test system: MDA-MB-231; test: Induction of cell cycle arrest in human MDA-MB-231 cells assessed as accumulation of cells in not cycling S phase at 10 nM for 3 days in presence of galunisertib by BrDU and PI staining based flow cytometric analysis (reference value: 2.5%); assay type: functional; settings: time 3 day
# [40] = test system: MDA-MB-231; test: Induction of cell cycle arrest in human MDA-MB-231 cells assessed as accumulation of cells in G2/M phase at 10 nM for 3 days in presence of galunisertib by BrDU and PI staining based flow cytometric analysis (reference value: 19.3%); assay type: functional; settings: time 3 day
# [41] = test system: MDA-MB-231; test: Induction of cell cycle arrest in human MDA-MB-231 cells assessed as accumulation of cells in S phase at 10 nM for 3 days in presence of galunisertib by BrDU and PI staining based flow cytometric analysis (reference value: 45.7%); assay type: functional; settings: time 3 day
compound,measurement,setting,value
CN1CCN(c2ccc(-c3cccc(CN4CCOCC4)c3)cc2NC(=O)c2c[nH]c(=O)cc2C(F)(F)F)CC1,inhibition,[1],Dose-Dependent Effect
same,inhibition,[2],inactive
same,inhibition,[3],Active
same,inhibition,[4],Active
same,Activity,[5],32.3%
same,Activity,[6]; time 3 day,2.2%
same,Activity,[7],19.1%
same,Activity,[8]; time 3 day,46%
same,Activity,[9]; time 3.0 day,inactive
same,Activity,[10]; time 3.0 day,Active
same,Activity,[11]; time 3.0 day,Active
same,Activity,[12]; time 3.0 day,Active
same,inhibition,[13],Dose-Dependent Effect
same,Activity,[14],inactive
same,Activity,[15],inactive
Cc1cccc(-c2nn3c(c2-c2ccnc4ccc(C(N)=O)cc24)CCC3)n1 [GALUNISERTIB],inhibition,[16],Active
same,inhibition,[17],Active
same,Activity,[6]; time 3.0 day,inactive
same,Activity,[8]; time 3.0 day,inactive
same,Activity,[9]; time 3 day,30.4%
same,Activity,[18],1.5%
same,Activity,[10]; time 3 day,18.5%
same,Activity,[19],48.8%
same,Activity,[20]; time 3.0 day,Active
same,Activity,[21]; time 3.0 day,Active
same,Activity,[22],inactive
same,Activity,[23],inactive
CC(=O)O[C@H]1C(=O)[C@@]2(C)[C@H]([C@H](OC(=O)c3ccccc3)[C@]3(O)C[C@H](OC(=O)[C@H](O)[C@@H](NC(=O)c4ccccc4)c4ccccc4)C(C)=C1C3(C)C)[C@]1(OC(C)=O)CO[C@@H]1C[C@@H]2O [PACLITAXEL],Activity,[24],Active
same,Activity,[25],Active
same,viability at 0.01 µM,[26],10%
same,viability at 0.01 µM,[27],10%
same,Activity,[11]; time 3 day,19.2%
same,Activity,[20]; time 3 day,9.2%
same,Activity,[12]; time 3 day,31.7%
same,Activity,[21]; time 3 day,38.6%
same,Activity,[28],Active
same,Activity,[29],Active
same,Activity,[30],Active
same,Activity,[31],Active
same,Activity,[32],Active
same,Activity,[33],Active
same,Activity,[34],22.4%
same,Activity,[35],11.9%
same,Activity,[36],37.5%
same,Activity,[37],26.7%
same,Activity,[38],16.7%
same,Activity,[39],8%
same,Activity,[40],40.1%
same,Activity,[41],34%
